Assay results reported in USRE31396E, “A-21978 Antibiotics and process for their production” (priority 1982, dated 1983).
≈ marks a conversion by molar mass, not a printed value. Read-outs that look alike come from different tables or passages of the source.

How the values were obtained:
[1] = tested on: Streptococcus faecalis (Guze); assay: In vitro susceptibility of the S. faecalis Guze strain; format: cell-based
Excerpt: ^1 In vitro susceptibility of the S. faecalis Guze strain

Staphylococcus aureus [2] = assay: ICS agar-dilution, clinical isolates; format: cell-based; conditions: Staphylococcus aureus (10 isolates), MIC or MIC range of isolates
[3] = tested on: Staphylococcus aureus 3055; assay: Standard agar-dilution test; format: cell-based
[4] = tested on: Neisseria gonorrhoeae 111076-4; assay: Standard agar-dilution test; format: cell-based
Peptococcus prevoti = assay: Standard agar-dilution test, anaerobic bacteria; format: cell-based; conditions: anaerobe
Streptococcus pyogenes [5] = assay: Agar dilution MIC (Table XV); format: cell-based
Excerpt: (§1) ^1 MIC = minimum inhibitory concentration (μg/ml), agar dilution

Streptococcus pneumoniae [6] = assay: Agar dilution MIC (Table XV); format: cell-based
Excerpt: as §1

Staphylococcus aureus [7] = assay: Agar dilution MIC (Table XV); format: cell-based
Excerpt: as §1

[8] = tested on: Group D Streptococcus 282; assay: Standard agar-dilution test; format: cell-based
[9] = tested on: Peptostreptococcus intermedius; assay: Standard agar-dilution test, anaerobic bacteria; format: cell-based; conditions: anaerobe
Propionibacterium acnes = assay: Standard agar-dilution test, anaerobic bacteria; format: cell-based; conditions: anaerobe
Clostridium perfringens = format: cell-based; conditions: anaerobe
[10] = tested on: Streptococcus pneumoniae Park I; assay: Standard agar-dilution test; format: cell-based
[11] = tested on: Streptococcus faecalis (Guze); assay: Streptococcus faecalis descending rat pyelonephritis test; conditions: rat dose 1.0 mg/kg × 7, subcutaneous
Actinomyces israelii = assay: Standard agar-dilution test, anaerobic bacteria; format: cell-based; conditions: anaerobe
[12] = tested on: Streptococcus pyogenes C203; assay: Standard agar-dilution test; format: cell-based
Eubacterium aerofaciens = assay: Standard agar-dilution test, anaerobic bacteria; format: cell-based; conditions: anaerobe
Micrococcus luteus = assay: Paper-disc agar-diffusion bioassay; conditions: Na salts
Fusobacterium symbiosum = assay: Standard agar-dilution test, anaerobic bacteria; format: cell-based; conditions: anaerobe
[13] = Mouse
[14] = tested on: Staphylococcus epidermidis; assay: ICS agar-dilution, clinical isolates; format: cell-based; conditions: Staphylococcus epidermidis (12 isolates)
[15] = tested on: Viridans Streptococcus 9943; assay: Standard broth-dilution test; format: cell-based
[16] = tested on: Streptococcus pyogenes C203; assay: Standard broth-dilution test; format: cell-based
[17] = Rat, IV
Bacteroides fragilis = assay: Standard agar-dilution test, anaerobic bacteria; format: cell-based; conditions: anaerobe
[18] = tested on: Group D Streptococcus 282; assay: Standard broth-dilution test; format: cell-based
[19] = tested on: Fusobacterium necrophorum; assay: Standard agar-dilution test, anaerobic bacteria; format: cell-based; conditions: anaerobe
Streptococcus pyogenes [20] = assay: Experimental bacterial infection in mice; format: in vivo; conditions: two doses
Procedure: (§2) When two doses of test compound were administered to mice in illustrative infections, the activity observed as measured as an ED50 value [effective dose in mg/kg to protect fifty percent of the test animals: See Warren Wick, et al., J. Bacteriol. 81, 233-235 (1961)].

Streptococcus pneumoniae [21] = assay: Experimental bacterial infection in mice; format: in vivo; conditions: subcutaneous administration, two doses
Procedure: as §2

Staphylococcus aureus [22] = assay: Experimental bacterial infection in mice; format: in vivo; conditions: subcutaneous administration, two doses
Procedure: as §2

[23] = tested on: Peptostreptococcus anaerobius; assay: Standard agar-dilution test, anaerobic bacteria; format: cell-based; conditions: anaerobe
[24] = tested on: Viridans Streptococcus 9943; assay: Standard agar-dilution test; format: cell-based
[25] = tested on: Staphylococcus aureus 3055; assay: Standard broth-dilution test; format: cell-based
Clostridium septicum = assay: Standard agar-dilution test, anaerobic bacteria; format: cell-based; conditions: anaerobe
[26] = tested on: Peptococcus asaccharolyticus; assay: Standard agar-dilution test, anaerobic bacteria; format: cell-based; conditions: anaerobe
[27] = tested on: Streptococcus pneumoniae Park I; assay: Standard broth-dilution test; format: cell-based

Question: For CN[C@H](CC(C)C)C(=O)N[C@H]1C(=O)N[C@@H](CC(N)=O)C(=O)N[C@H]2C(=O)N[C@H]3C(=O)N[C@H](C(=O)N[C@H](C(=O)O)c4cc(O)cc(O)c4-c4cc3ccc4O)[C@H](O)c3ccc(c(Cl)c3)Oc3cc2cc(c3O[C@@H]2O[C@H](CO)[C@@H](O)[C@H](O)[C@H]2O[C@H]2C[C@](C)(N)[C@H](O)[C@H](C)O2)Oc2ccc(cc2Cl)[C@H]1O [Vancomycin, reference compound], which MIC ([1]; Enterococcus faecalis, read-out: MIC) is on record?
Answer: Its MIC is 1 µg/mL (≈ 0.69 µM).

Question: For CCC(C)CCCCCCC(=O)NC(Cc1c[nH]c2ccccc12)C(=O)NC(CC(N)=O)C(=O)NC(CC(=O)O)C(=O)NC1C(=O)NCC(=O)NC(CCCN)C(=O)NC(CC(=O)O)C(=O)NC(C)C(=O)NC(CC(=O)O)C(=O)NCC(=O)NC(CO)C(=O)NC(C(C)CC(=O)O)C(=O)NC(CC(=O)c2ccccc2N)C(=O)OC1C (stereo not shown) [Factor C1], which “Minimum Inhibitory Concentration” value (Staphylococcus aureus [2]) is on record?
Answer: Its value is 0.5 µg/mL.

Question: What about the MIC [1] of the same compound?
Answer: The MIC was 1.0 µg/mL (≈ 0.612 µM).

Question: What about the MIC [3] of the same compound?
Answer: The MIC was 0.5 µg/mL (≈ 0.306 µM).

Question: And the MIC [4]?
Answer: Its MIC is 16.0 µg/mL (≈ 9.79 µM).

Question: And the MIC (Peptococcus prevoti)?
Answer: Its MIC is 2 µg/mL (≈ 1.22 µM).

Question: What about the MIC (Streptococcus pyogenes [5]) of the same compound?
Answer: The MIC was 0.13 µg/mL (≈ 0.0795 µM).

Question: What about the MIC (Streptococcus pneumoniae [6]) of the same compound?
Answer: The MIC was 0.13 µg/mL (≈ 0.0795 µM).

Question: And the MIC (Staphylococcus aureus [7])?
Answer: The MIC was 0.5 µg/mL (≈ 0.306 µM).

Question: And the MIC [8]?
Answer: The MIC was 1.0 µg/mL (≈ 0.612 µM).

Question: And the MIC [9]?
Answer: Its MIC is 4 µg/mL (≈ 2.45 µM).

Question: And the MIC (Propionibacterium acnes)?
Answer: The MIC was 8 µg/mL (≈ 4.89 µM).

Question: What about the MIC (Clostridium perfringens) of the same compound?
Answer: The MIC was 16 µg/mL (≈ 9.79 µM).

Question: And the MIC [10]?
Answer: The MIC was 0.13 µg/mL (≈ 0.0795 µM).

Question: What about the “Percent of Rats with a 4-Log Titer Decrease” value [11] of the same compound?
Answer: Its value is 50.

Question: What about the “Percent of Rats Cured” value ([11]; kidney counts less than 10^2 per g) of the same compound?
Answer: Its value is 50.

Question: What about the MIC (Actinomyces israelii) of the same compound?
Answer: The MIC was 4 µg/mL (≈ 2.45 µM).

Question: And the MIC [12]?
Answer: Its MIC is 0.13 µg/mL (≈ 0.0795 µM).

Question: And the MIC (Eubacterium aerofaciens)?
Answer: The MIC was 16 µg/mL (≈ 9.79 µM).

Question: And the “Bioassay (Micrococcus luteus)” value (Micrococcus luteus)?
Answer: The value was 1663 units/mg.

Question: What about the MIC (Fusobacterium symbiosum) of the same compound?
Answer: The MIC was greater than 128 µg/mL.

Question: And the LD50 ([13]; IV)?
Answer: Its LD50 is greater than 250 mg/kg.

Question: What about the LD50 ([13]; SC) of the same compound?
Answer: The LD50 was greater than 365 mg/kg.

Question: And the “Minimum Inhibitory Concentration” value [14]?
Answer: The value was 0.13 to 0.25 µg/mL.

Question: And the MIC [15]?
Answer: Its MIC is 32.0 µg/mL (≈ 19.6 µM).

Question: And the MIC [16]?
Answer: The MIC was 0.5 µg/mL (≈ 0.306 µM).

Question: And the LD50 [17]?
Answer: The LD50 was 479 ± 32 mg/kg.

Question: And the MIC (Bacteroides fragilis)?
Answer: Its MIC is greater than 128 µg/mL.

Question: What about the MIC [18] of the same compound?
Answer: The MIC was 2.0 µg/mL (≈ 1.22 µM).

Question: What about the MIC [19] of the same compound?
Answer: The MIC was 64 µg/mL (≈ 39.2 µM).

Question: What about the ED50 (Streptococcus pyogenes [20]; oral administration) of the same compound?
Answer: The ED50 was 93 mg/kg.

Question: And the ED50 (Streptococcus pyogenes [20]; subcutaneous administration)?
Answer: Its ED50 is 0.064 mg/kg.

Question: And the ED50 (Streptococcus pneumoniae [21])?
Answer: Its ED50 is 0.3 mg/kg.

Question: And the ED50 (Staphylococcus aureus [22])?
Answer: The ED50 was 0.22 mg/kg.

Question: What about the MIC [23] of the same compound?
Answer: The MIC was 2 µg/mL (≈ 1.22 µM).

Question: And the MIC [24]?
Answer: Its MIC is 0.5 µg/mL (≈ 0.306 µM).

Question: And the MIC [25]?
Answer: The MIC was 1.0 µg/mL (≈ 0.612 µM).

Question: What about the MIC (Clostridium septicum) of the same compound?
Answer: Its MIC is 4 µg/mL (≈ 2.45 µM).

Question: What about the MIC [26] of the same compound?
Answer: The MIC was 4 µg/mL (≈ 2.45 µM).

Question: What about the MIC [27] of the same compound?
Answer: Its MIC is 2.0 µg/mL (≈ 1.22 µM).
